Source: patent US20090215036A1, “Genetic Alterations Useful For The Response Prediction of Malignant Neoplasia to Taxane-Based Medical Treatments” (Bayer HealthCare AG, priority 2004, published 2009)

How the values were obtained:
breast cancer patients [1] = experiment: Bivariate DNA and/or RNA marker combinations, +Taxol arm vs. -Taxol arm, quadrant analysis with Kaplan-Meier plots; conditions: GR3 + 4
breast cancer patients [2] = experiment: Kaplan-Meier disease free survival of the two therapy arms (E-T-CMF vs. E-CMF) in respect to gene amplifications
Method: These samples were formalin-fixed and paraffin-embedded material from primary tumours. A detailed clinical report about all patients was available. The anonymized data included all medical, therapeutical, clinical, histo- and pathological, and follow-up information incl. relapse or survival time.
More than 60 genes were analyzed according to the method disclosed in examples 1 and 2 by quantitative PCR after nucleic acid extraction from formaldehyde-fixed, paraffin-embedded tissue slides. Alterations of the analyzed genes were determined by comparison with at least two reference genes. Reference genes included mainly MMP28 and HNRPDL, but also HBB, B2M, SOD2. […] The reference genes should be independent from the ARCHEON alterations occurring in the neoplastic lesions and should not be affected by chromosomal alterations such as amplifications and deletions. […] By measuring genes located on the X-chromosome (e.g. SRY), the Y-chromosome (e.g. Xist) and on chromosome 21, defined copy numbers of 1, 2 and 3 genes could be determined as internal control during each run for standardization. […] The calculated performance differences were used as a filter for the measurements within the target tissues, i.e. primer/probe differences of each individual gene as depicted in the control cells and tissues were subtracted from each individual gene measurement performed in the target tissue. […]

## CC(=O)O[C@H]1C(=O)[C@@]2(C)[C@H]([C@H](OC(=O)c3ccccc3)[C@]3(O)C[C@H](OC(=O)[C@H](O)[C@@H](NC(=O)c4ccccc4)c4ccccc4)C(C)=C1C3(C)C)[C@]1(OC(C)=O)CO[C@@H]1C[C@@H]2O [Taxol]
Breast cancer patients [1]; ABCG2_R thr 11.0 / SIVA_D thr 1.3, Quadrant LH
  Benefit: OUT: Always beneficial
Breast cancer patients [1]; AFP_R thr −2.2 / EMS1_R thr 18.9, Quadrant HL
  Benefit: OUT: Taxol beneficial
Breast cancer patients [1]; AFP_R thr −2.2 / FLT1_D thr 3.3, Quadrant HL
  Benefit: OUT: Taxol beneficial
Breast cancer patients [1]; AFP_R thr −2.2 / TRAG3_D thr 1.2, Quadrant HH
  Benefit: OUT: Taxol beneficial
Breast cancer patients [1]; AFP_R thr −2.2 / TWIST1_D thr 1.1, Quadrant HH
  Benefit: OUT: Taxol beneficial
Breast cancer patients [1]; AFP_R thr −2.5 / ISGF3G_D thr 3.7, Quadrant HL
  Benefit: OUT: Taxol beneficial
Breast cancer patients [1]; BUB3_D thr 2.0 / MST1_D thr 2.1, Quadrant HH
  Benefit: OUT: Always beneficial
Breast cancer patients [1]; CCNE2_R thr 13.4 / MST1_D thr 2.0, Quadrant LL
  Benefit: IN: Always beneficial
Breast cancer patients [1]; CIDEB_R thr 13.7 / ERBB3_R thr 14.7, Quadrant LH
  Benefit: IN: Taxol beneficial
Breast cancer patients [1]; CIDEB_R thr 13.7 / RIN1_D thr 2.1, Quadrant LL
  Benefit: IN: Taxol beneficial
Breast cancer patients [1]; EMS1_R thr 15.9 / RIN1_D thr 2.1, Quadrant HL
  Benefit: IN: Taxol beneficial
Breast cancer patients [1]; EMS1_R thr 16.9 / ERBB3_R thr 14.7, Quadrant HH
  Benefit: IN: Taxol beneficial
Breast cancer patients [1]; ERBB3_R thr 14.7 / BRMS1_D thr 4.6, Quadrant HL
  Benefit: IN: Taxol beneficial
Breast cancer patients [1]; ERBB3_R thr 14.7 / MUC1_D thr 2.6, Quadrant HL
  Benefit: IN: Taxol beneficial
Breast cancer patients [1]; ERBB3_R thr 14.7 / VEGF_D thr 3.9, Quadrant HL
  Benefit: IN: Taxol beneficial
Breast cancer patients [1]; ESR1_R thr 12.3 / CA9_R thr 1.4, Quadrant HH
  Benefit: OUT: Taxol beneficial
Breast cancer patients [1]; FNTA_R thr 11.9 / ERBB2_D thr 1.8, Quadrant HH
  Benefit: OUT: Always beneficial
Breast cancer patients [1]; FolR2_D thr 2.9 / VEGF_D thr 2.6, Quadrant HL
  Benefit: IN: Taxol beneficial
Breast cancer patients [1]; GSTP1_D thr 2.2 / ING1L_D thr 1.6, Quadrant LH
  Benefit: OUT: Always beneficial
Breast cancer patients [1]; GSTP1_D thr 2.4 / MST1_D thr 2.1, Quadrant LH
  Benefit: OUT: Always beneficial
Breast cancer patients [1]; KISS I_D thr 1.3 / ERBB2_D thr 1.8, Quadrant HH
  Benefit: OUT: Always beneficial
Breast cancer patients [1]; MYC2_D thr 2.1 / ERBB3_R thr 14.4, Quadrant HH
  Benefit: IN: Taxol beneficial
Breast cancer patients [1]; MYC2_D thr 2.2 / CASP10_D thr 2.2, Quadrant HL
  Benefit: IN: Taxol beneficial
Breast cancer patients [1]; PGR_R thr 9.1 / RIN1_D thr 2.1, Quadrant HL
  Benefit: IN: Taxol beneficial
Breast cancer patients [1]; PGR_R thr 14.3 / ERBB3_R thr 14.7, Quadrant LH
  Benefit: IN: Taxol beneficial
Breast cancer patients [1]; PVT1_D thr 1.3 / RIN1_D thr 2.1, Quadrant HL
  Benefit: IN: Taxol beneficial
Breast cancer patients [1]; RAD54B_D thr 1.2 / ERBB2_D thr 1.8, Quadrant HH
  Benefit: OUT: Always beneficial
Breast cancer patients [1]; RIN1_D thr 2.1 / EMS1_D thr 1.2, Quadrant LH
  Benefit: IN: Taxol beneficial
Breast cancer patients [1]; RIN1_D thr 2.1 / VEGF_D thr 1.5, Quadrant LH
  Benefit: IN: Taxol beneficial
Breast cancer patients [1]; STAU_R thr 17.6 / FLT1_R thr 3.5, Quadrant LL
  Benefit: OUT: Taxol beneficial
Breast cancer patients [1]; TONDO_R thr 12.2 / ErbB4_D thr 2.2, Quadrant LH
  Benefit: IN: Taxol beneficial
Breast cancer patients [1]; VEGFa_R thr 13.0 / BOP1_D thr 2.0, Quadrant HH
  Benefit: OUT: Always beneficial
Breast cancer patients [1]; VEGFa_R thr 14.1 / AFP_R thr −1.0, Quadrant LH
  Benefit: IN: Always beneficial
Breast cancer patients [2]; FIGS. 2a-c, ErbB4 and VEGF amplified, alone or as a marker set of two genes
  outcome of Taxol therapy in patients with gene amplification: benefit from Taxol therapy
Breast cancer patients [2]; TRAG3 amplification
  correlation of gene amplification to Taxol resistance: no strong correlation
